Test results published in patent US10221426B2, “Constitutively active PYR/PYL receptor proteins for improving plant stress tolerance” (The Regents of the University of California, priority 2009, dated 2019).

Target: T1, PYR1 and PP2Cs (GST-HAB1, GST-ABI1, GST-ABI2) (Arabidopsis thaliana, UniProt O49686)
T1 construct: made in house; host or cells: E. coli BL21[DE3]pLysS
T1 sequence (O49686 1-191): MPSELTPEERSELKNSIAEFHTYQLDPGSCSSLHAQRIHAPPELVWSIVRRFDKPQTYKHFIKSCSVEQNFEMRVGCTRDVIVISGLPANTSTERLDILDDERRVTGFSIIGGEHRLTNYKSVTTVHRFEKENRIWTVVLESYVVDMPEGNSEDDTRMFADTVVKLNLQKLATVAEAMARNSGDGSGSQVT
T1 sequence (Q9CAJ0 1-511 partner): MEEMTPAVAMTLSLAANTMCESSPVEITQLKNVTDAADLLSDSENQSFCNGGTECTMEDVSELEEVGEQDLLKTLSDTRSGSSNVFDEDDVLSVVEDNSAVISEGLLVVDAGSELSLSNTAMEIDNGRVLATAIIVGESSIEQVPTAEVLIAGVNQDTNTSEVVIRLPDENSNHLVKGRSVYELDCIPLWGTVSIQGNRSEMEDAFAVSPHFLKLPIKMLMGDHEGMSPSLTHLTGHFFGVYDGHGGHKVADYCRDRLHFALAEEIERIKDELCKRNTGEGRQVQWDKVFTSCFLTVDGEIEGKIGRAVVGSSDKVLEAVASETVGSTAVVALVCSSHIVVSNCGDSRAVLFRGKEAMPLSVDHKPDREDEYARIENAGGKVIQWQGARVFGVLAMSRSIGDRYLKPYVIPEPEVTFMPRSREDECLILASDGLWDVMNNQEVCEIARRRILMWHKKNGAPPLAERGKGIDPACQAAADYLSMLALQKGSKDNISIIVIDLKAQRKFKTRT
Experiment: Pull-down assay of 6×His-PYR1 with GST-PP2Cs
Format: binding
Details: purified recombinant proteins; 10 μM (+)-ABA
Protocol: To explore the functional implications of the PYR1-PP2C interaction, we examined if an ABA response could be reconstituted in vitro. Recombinant GST-HAB1, GST-ABI1 and GST-ABI2 were expressed in E. coli and tested for ligand-dependent interactions with 6×His-PYR1 in pull-down assays. Purified 6×His-PYR1 and GST-HAB1 (20 and 100 μg respectively, 8 μM PYR1 final concentration), were combined in 100 μl TBS containing 10 μM (+)-ABA or 1% DMSO for negative control. The reaction was incubated for 90 minutes at RT and 5 μl of PrepEase (USB) His-tagged protein purification resin was added. The resin and reaction mixture was incubated 30 min at RT with gentle shaking at 5 min intervals. The resin was washed five times with TBS containing 10 μM (+)-ABA. After the final wash, the bound protein was eluted in 20 μl SDS-PAGE buffer, boiled for 5 minutes and centrifuged. 5 μl of eluate was analyzed on SDS-PAGE. For pull-downs with ABI1 and ABI2, crude lysates were used in a similar method, except purified PP2C was replaced with cleared E. coli lysates. The amount of lysate added was determined by SDS-page analysis to yield ˜100 μg PP2C, such that the same stoichiometry was used as in assays using purified proteins.

SMILES | ligand-dependent PP2C interaction with 6×His-PYR1 in pull-down
CC1=CC(=O)CC(C)(C)C1(O)/C=C/C(C)=C\C(=O)O (single isomer, unassigned; (+)) [(+)-ABA] | promote PP2C interactions with PYR1
O=S(=O)(NCc1ccccn1)c1ccc(Br)c2ccccc12 [pyrabactin] | promote PP2C interactions with PYR1
